This note sets out measurements from patent publication US9169252B2 (BRISTOL-MYERS SQUIBB COMPANY, priority 2014, dated 2015).

Like-named read-outs stand apart in the source and are kept apart here.

One assay addresses IRAK4 (Homo sapiens (Human), UniProt Q9NWZ3). The assay can be described thus: IRAK4 Inhibition Assay. Particulars: IRAK4 Inhibition Assay; ATP 500 μM; read-out: IRAK4 IC50. The assay is classed as biochemical. An outline of the steps: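 IRAK4 combined with fluorescent substrate and compounds, reacted 60 min at room temperature, stopped with 35 mM EDTA. Substrate and phosphorylated product separated electrophoretically on a Caliper LabChip 3000 mobility-shift reader.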

Assay [1] concerns TLR2 induced IL-6 in peripheral blood mononuclear cells (PBMCs). The assay can be described thus: PBMC TLR2 Induced IL-6 Assay. Type of assay: cell-based, human. Particulars: PBMC TLR2 Induced IL-6 Assay, lipoteichoic acid stimulation, IL-6 by ELISA; for IC50: read-out: Cell IC50; for EC50: read-out: Cell EC50. An outline of the steps: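 Lipoteichoic acid at 10 µg/ml served as TLR2 stimulus for 5 hours, following a 30-minute compound pretreatment at 37° C. Cells were Ficoll-isolated human PBMCs, 250000 cells/well, cultured in RPMI plus 10% heat-inactivated FCS.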

IRAK4, sequence (Q9NWZ3 whole entry, species assumed): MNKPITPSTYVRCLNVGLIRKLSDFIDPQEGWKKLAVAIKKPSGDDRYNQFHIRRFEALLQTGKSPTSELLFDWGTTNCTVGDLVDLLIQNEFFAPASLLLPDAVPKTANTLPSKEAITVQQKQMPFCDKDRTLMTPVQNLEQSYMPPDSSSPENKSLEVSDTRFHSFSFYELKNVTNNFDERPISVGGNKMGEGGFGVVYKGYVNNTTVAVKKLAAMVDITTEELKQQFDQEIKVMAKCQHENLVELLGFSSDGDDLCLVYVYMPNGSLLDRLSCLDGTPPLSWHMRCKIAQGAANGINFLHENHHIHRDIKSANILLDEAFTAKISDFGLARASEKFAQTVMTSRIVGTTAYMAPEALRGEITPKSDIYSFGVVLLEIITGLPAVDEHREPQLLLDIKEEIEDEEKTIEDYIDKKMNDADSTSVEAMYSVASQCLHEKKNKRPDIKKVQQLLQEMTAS

Turning to `CC1(Nc2cc(-n3ncc4cc(C#N)cnc43)ncc2C(=O)NC[C@@H](F)C(C)(C)O)CC1` [Example 292], the concentration for half-maximal inhibition (IC50) (usually the midpoint of a concentration-inhibition curve) at IRAK4 turned out to be 2.7 nM; in assay [1] (Homo sapiens, PBMC), 456 nM.
In the case of `CC(C)(C)Nc1cc(-n2ncc3cc(C#N)c(N)nc32)ncc1C(=O)NC[C@@H](F)C(C)(C)O` [Example 293], the concentration for half-maximal inhibition (IC50) on IRAK4 was found to be 1 nM; in assay [1] (Homo sapiens, PBMC) it was 32 nM.
Regarding `CC(C)Nc1cc(-n2ncc3cc(C#N)cnc32)ncc1C(=O)NCC(F)=C1CCOCC1` [Example 294], the IC50 is 13.4 nM at IRAK4 and 292 nM in assay [1] (Homo sapiens, PBMC).
For `CC(C)Nc1cc(-n2ncc3cc(C#N)c(N)nc32)ncc1C(=O)NC[C@@H](F)C(C)(C)F` [Example 295], the IC50 at IRAK4 was determined as 1.9 nM; in assay [1] (Homo sapiens, PBMC), 240 nM.
On to `CC(C)Nc1cc(-n2ncc3cc(C#N)cnc32)ncc1C(=O)N[C@@H]1CC[C@@H](C(C)(C)O)OC1` [Example 296], for which the IC50 came out at 7.1 nM on IRAK4 and 412 nM in assay [1] (Homo sapiens, PBMC).
As for `CC(C)CCNC(=O)c1cnc(-n2ncc3cc(C#N)cnc32)cc1NC(C)C` [Example 298], the IC50 turned out to be 4.5 nM at IRAK4 and 142 nM in assay [1] (Homo sapiens, PBMC).
As to `CC(C)Nc1cc(-n2ncc3cc(C#N)c(N)nc32)ncc1C(=O)NCCC1CC1` [Example 299], the IC50 on IRAK4 worked out at 6.3 nM; in assay [1] (Homo sapiens, PBMC) it was 252 nM.
With `CC[C@@H](C)Nc1cc(-n2ncc3cc(C#N)c(N)nc32)ncc1C(=O)NC[C@@H](F)C(C)(C)O` [Example 300], the IC50 at IRAK4 came to 1.6 nM; in assay [1] (Homo sapiens, PBMC) it was 83 nM.
As for `CC(Nc1cc(-n2ncc3cc(C#N)c(N)nc32)ncc1C(=O)NC[C@@H](F)C(C)(C)O)C(F)(F)F` (stereo partly shown) [Example 301], the IC50 on IRAK4 came to 2.4 nM; in assay [1] (Homo sapiens, PBMC), 63 nM.
In the case of `CC(C)Nc1cc(-n2ncc3cc(C#N)cnc32)ncc1C(=O)NCCC1CC1` [Example 302], the IC50 was 4.1 nM at IRAK4 and 148 nM in assay [1] (Homo sapiens, PBMC).
For the compound `CC(C)CCNC(=O)c1cnc(-n2ncc3cc(C#N)c(N)nc32)cc1NC(C)C` [Example 303], the 50% inhibitory concentration (IC50) came to 3.5 nM at IRAK4 and 176 nM in assay [1] (Homo sapiens, PBMC).
With `CC(C)Nc1cc(-n2ncc3cc(C#N)cnc32)ncc1C(=O)Nc1cnn(CC(C)(C)O)c1` [Example 304], the 50% inhibitory concentration (IC50) at IRAK4 amounted to 10.7 nM; in assay [1] (Homo sapiens, PBMC), 408 nM.
Regarding `CNC(=O)c1cnc(-n2ncc3cc(C#N)c(N)nc32)cc1NC(C)C` [Example 305], the half-maximal inhibitory concentration (IC50) was 9.2 nM on IRAK4 and 207 nM in assay [1] (Homo sapiens, PBMC).
Regarding `CC(C)Nc1cc(-n2ncc3cc(C#N)cnc32)ncc1C(=O)NCCC(C)(C)NS(C)(=O)=O` [Example 306], the IC50 turned out to be 4.8 nM at IRAK4 and 800 nM in assay [1] (Homo sapiens, PBMC).
`CC(C)Nc1cc(-n2ncc3cc(C#N)c(N)nc32)ncc1C(=O)NCCC(C)(C)F` [Example 307]: the IC50 at IRAK4 was 2 nM; in assay [1] (Homo sapiens, PBMC) it was 127 nM.
For the compound `CC(C)Nc1cc(-n2ncc3cc(C#N)cnc32)ncc1C(=O)NC[C@@H](F)C(C)(C)F` [Example 308], the IC50 on IRAK4 stood at 3 nM; in assay [1] (Homo sapiens, PBMC), 73 nM.
On to `CC(C)Nc1cc(-n2ncc3cc(C#N)cnc32)ncc1C(=O)NC1CCN(S(=O)(=O)NC(C)C)CC1` [Example 309], for which the IC50 at IRAK4 is 18.4 nM; in assay [1] (Homo sapiens, PBMC), 207 nM.
Consider `CC(C)Nc1cc(-n2ncc3cc(C#N)cnc32)ncc1C(=O)NCCC1CCOCC1` [Example 310], for which the IC50 at IRAK4 is 4.5 nM; in assay [1] (Homo sapiens, PBMC) it was 23 nM.
`CC(C)Nc1cc(-n2ncc3cc(C#N)cnc32)ncc1C(=O)NCCc1c[nH]cn1` [Example 311]: the IC50 on IRAK4 came to 4.7 nM; in assay [1] (Homo sapiens, PBMC), 347 nM.
As for `CC(C)Nc1cc(-n2ncc3cc(C#N)cnc32)ncc1C(=O)NC[C@@H](F)C(C)C` [Example 312], the IC50 was determined as 9.2 nM at IRAK4 and 375 nM in assay [1] (Homo sapiens, PBMC).
The corresponding values for `CNS(=O)(=O)N1CCC(NC(=O)c2cnc(-n3ncc4cc(C#N)cnc43)cc2NC(C)C)CC1` [Example 313] are 14.7 nM and 289 nM.
Regarding `CC(C)Nc1cc(-n2ncc3cc(C#N)cnc32)ncc1C(=O)NC[C@@H](F)C(C)(C)OC(F)F` [Example 314], the 50% inhibitory concentration (IC50) was 13.7 nM at IRAK4 and 420 nM in assay [1] (Homo sapiens, PBMC).
Turning to `CC(C)Nc1cc(-n2ncc3cc(C#N)cnc32)ncc1C(=O)NC[C@@H](F)C(O)(C1CC1)C1CC1` [Example 315], the IC50 was determined as 10.7 nM on IRAK4 and 267 nM in assay [1] (Homo sapiens, PBMC).
As to `CC(=O)N[C@H]1CC[C@H](NC(=O)c2cnc(-n3ncc4cc(C#N)c(N)nc43)cc2NC(C)C)CC1` [Example 317], the IC50 at IRAK4 amounted to 3.8 nM; in assay [1] (Homo sapiens, PBMC), 172 nM.
In the case of `C[C@@H](CO)Nc1cc(-n2ncc3cc(C#N)cnc32)ncc1C(=O)NCCC1CC1` [Example 318], the IC50 at IRAK4 came out at 7.9 nM; in assay [1] (Homo sapiens, PBMC) it was 188 nM.
As for `CCCCNC(=O)c1cnc(-n2ncc3cc(C#N)cnc32)cc1N[C@@H](C)CO` [Example 319], the 50% inhibitory concentration (IC50) is 6.5 nM on IRAK4 and 191 nM in assay [1] (Homo sapiens, PBMC).
As to `CC(C)CCNC(=O)c1cnc(-n2ncc3cc(C#N)cnc32)cc1N[C@@H](C)CO` [Example 320], the IC50 on IRAK4 was 5.6 nM; in assay [1] (Homo sapiens, PBMC) it was 261 nM.
The corresponding values for `COC(C)(C)[C@H](F)CNC(=O)c1cnc(-n2ncc3cc(C#N)c(N)nc32)cc1NC(C)C` [Example 321] are 3.1 nM and 53 nM.
As for `CC(C)Nc1cc(-n2ncc3cc(C#N)c(N)nc32)ncc1C(=O)NC1(C)CC1` [Example 322], the 50% inhibitory concentration (IC50) amounted to 6.7 nM on IRAK4 and 159 nM in assay [1] (Homo sapiens, PBMC).
The corresponding values for `CC(C)Nc1cc(-n2ncc3cc(C#N)c(N)nc32)ncc1C(=O)N[C@H](C)C1CC1` [Example 323] are 17.3 nM and 612 nM.
On to `CC(C)Nc1cc(-n2ncc3cc(C#N)c(N)nc32)ncc1C(=O)NC1CCCCC1` [Example 324], for which the 50% inhibitory concentration (IC50) at IRAK4 came out at 6.6 nM; in assay [1] (Homo sapiens, PBMC), 278 nM.
The corresponding values for `CC(C)Nc1cc(-n2ncc3cc(C#N)c(N)nc32)ncc1C(=O)NC1(C#N)CC1` [Example 325] are 6 nM and 227 nM.
For the compound `CCCNC(=O)c1cnc(-n2ncc3cc(C#N)c(N)nc32)cc1NC(C)C` [Example 326], the IC50 at IRAK4 turned out to be 11.4 nM; in assay [1] (Homo sapiens, PBMC) it was 30 nM.
For the compound `CC(C)Nc1cc(-n2ncc3cc(C#N)c(N)nc32)ncc1C(=O)NC1C=CCC1` (stereo not shown) [Example 327], the IC50 worked out at 11.1 nM at IRAK4 and 181 nM in assay [1] (Homo sapiens, PBMC).
Consider `CC(C)Nc1cc(-n2ncc3cc(C#N)c(N)nc32)ncc1C(=O)NC[C@@H](C)F` [Example 328], for which the IC50 on IRAK4 stood at 10 nM; in assay [1] (Homo sapiens, PBMC), 11 nM.
On to `CC(C)Nc1cc(-n2ncc3cc(C#N)cnc32)ncc1C(=O)NCC(F)C1CCOCC1` (stereo not shown) [Example 329], for which the concentration for half-maximal inhibition (IC50) stood at 4.9 nM on IRAK4 and 76 nM in assay [1] (Homo sapiens, PBMC).
Take `CC(C)Nc1cc(-n2ncc3cc(Cl)cnc32)ncc1C(=O)NC[C@@H](F)C(C)(C)F` [Example 330]: the IC50 is 4.3 nM on IRAK4 and 512 nM in assay [1] (Homo sapiens, PBMC).
The corresponding values for `CC(C)Nc1cc(-n2ncc3cc(C#N)cnc32)ncc1C(=O)NCCC1(O)CC1` [Example 331] are 6.2 nM and 57 nM.
With `CC(C)Nc1cc(-n2ncc3cc(C#N)cnc32)ncc1C(=O)NCCC(C)(F)F` [Example 332], the IC50 on IRAK4 stood at 13 nM; in assay [1] (Homo sapiens, PBMC), 159 nM.
With `CC(C)Nc1cc(-n2ncc3cnc(NC[C@@H](F)C(C)(C)O)nc32)ncc1C(=O)NC[C@@H](F)C(C)(C)O` [Example 334], the IC50 at IRAK4 was found to be 18.5 nM. Further, the concentration for a half-maximal effect (EC50) (as a rule, the concentration at which the effect is half-maximal) in assay [1] (Homo sapiens, PBMC) came out at 460 nM.
As for `CC(C)Nc1cc(-n2ncc3cc(C#N)cnc32)ncc1C(=O)NC[C@@H](F)C(C)(C)O` [Example 335], the half-inhibitory concentration (IC50) on IRAK4 was determined as 3.3 nM. The concentration giving a half-maximal response (EC50) in assay [1] is 77 nM.
Take `CC(C)(O)[C@H](F)CNC(=O)c1cnc(-n2ncc3cc(C#N)cnc32)cc1NC1CC1` [Example 336]: the IC50 at IRAK4 was 3.8 nM; in assay [1] (Homo sapiens, PBMC), 556 nM. In assay [1], the EC50 stood at 168 nM.
With `CC(C)(O)[C@H](F)CNC(=O)c1cnc(-n2cnc3cc(C#N)cnc32)cc1NC1CCC1` [Example 338], the half-maximal inhibitory concentration (IC50) on IRAK4 is 4.5 nM; in assay [1] (Homo sapiens, PBMC) it was 147 nM.
Turning to `CC(C)Nc1cc(-n2cnc3cc(Cl)cnc32)ncc1C(=O)NC[C@@H](F)C(C)(C)O` [Example 339], the IC50 on IRAK4 was determined as 4 nM; in assay [1] (Homo sapiens, PBMC), 332 nM.
For `CC(C)(O)[C@H](F)CNC(=O)c1cnc(-n2cnc3cc(Cl)cnc32)cc1NC1COC1` [Example 340], the IC50 on IRAK4 is 10 nM. Also, the concentration for a half-maximal effect (EC50) in assay [1] (Homo sapiens, PBMC) was determined as 536 nM.
On to `CC(C)Nc1cc(-n2cnc3cc(C#N)c(N)nc32)ncc1C(=O)NC[C@@H](F)C(C)(C)O` [Example 341], for which the IC50 at IRAK4 turned out to be 1.9 nM. In addition, the EC50 in assay [1] (Homo sapiens, PBMC) was 161 nM.
Consider `CC(C)Nc1cc(-n2cnc3cc(C#N)cnc32)ncc1C(=O)NC[C@@H](F)C(C)(C)F` [Example 342], for which the IC50 on IRAK4 came to 8.7 nM; in assay [1] (Homo sapiens, PBMC) it was 423 nM.
Consider `CC1(Nc2cc(-n3cnc4cc(C#N)cnc43)ncc2C(=O)NC[C@@H](F)C(C)(C)O)CC1` [Example 343], for which the IC50 on IRAK4 was 3.5 nM; in assay [1] (Homo sapiens, PBMC) it was 428 nM.
The corresponding values for `CC(C)(F)[C@H](F)CNC(=O)c1cnc(-n2cnc3cc(C#N)cnc32)cc1NC1COC1` [Example 344] are 13.5 nM and 144 nM.
The corresponding values for `CC(C)(O)[C@H](F)CNC(=O)c1cnc(-n2cnc3cc(C#N)cnc32)cc1NC1CCOCC1` [Example 345] are 7.4 nM and 180 nM.
`CC(C)Nc1cc(-n2cnc3cnc(N)nc32)ncc1C(=O)NC[C@@H](F)C(C)(C)F` [Example 346]: the concentration for half-maximal inhibition (IC50) on IRAK4 stood at 3.6 nM; in assay [1] (Homo sapiens, PBMC), 306 nM.
